Laboratory results published in patent publication US6288265A, “Phloroglucidic acid and derivatives as antibacterial agents” (National Science Council, priority 1999, dated 2001).
In brackets after ≈: the same amount, converted by molar mass. Entries after “also recorded” stand apart in the source; their conditions may differ. Read-outs that look alike come from different tables or passages of the source.

Legend:
[1] = system: pathogenic microorganisms; test: Antibacterial activity in vitro (statements in words); assay type: cell-based
Protocol: (§1) Determination of Minimum Inhibitory Concentrations. The screening experiments in vitro were carried out for antibacterial activities of the phloroglucide analogs II-VII, XII-XIV, bifunctional cephalosporins VIII and IX, as well as 7-(phloroglucidamido)cephalosporins X and XI. Cephalosporins XV and XVI were used as the reference compounds. The lowest concentrations of antibiotics needed for prevention of visible growth of microorganisms; reported as the average values of duplicate determinations. Minimum inhibitory concentrations (MIC) values obtained by use of an agar dilution method whereby organisms were deposited onto medicated agar plates by the replication device of Steers et al [Steers, F. et al. Antibiot. Chemother. 1959, 9, 307].

PS. aerureus 18S-H = test: Minimum inhibitory concentration, agar dilution, Ps. 18S-H; assay type: cell-based, Pseudomonas aeruginosa 18S-H; details: Pseudomonas aeruginosa, 18SH, read-out: Minimum Inhibitory Concentration (MIC), PS. aerureus 18S-H
Protocol: as §1

S. aureus FDA 209P = test: Minimum inhibitory concentration, agar dilution, S. aureus FDA 209P; assay type: cell-based, Staphylococcus aureus FDA 209P; details: for MIC: Staphylococcus aureus, FDA209P, agar dilution, average of duplicate determinations; for antibacterial activity in words, S. aureus FDA 209P: compared with corresponding phloroglucides
Protocol: as §1

C. albicans = test: Minimum inhibitory concentration, agar dilution, C. albicans; assay type: cell-based; details: Candida albicans, read-out: Minimum Inhibitory Concentration (MIC), C. albicans
Protocol: as §1

S. aureus 95 = test: Minimum inhibitory concentration, agar dilution, S. aureus 95; assay type: cell-based, Staphylococcus aureus 95; details: for activity against β-lactamase producing microorganisms, in words: i.e., S. aureus 95
Protocol: as §1

Ps. aerureus 1101-75 = test: Minimum inhibitory concentration, agar dilution, Ps. 1101-75; assay type: cell-based, Pseudomonas aeruginosa
Protocol: as §1

[2] = system: β-lactamase of PS. aeruginosa 18S-H; test: Minimum protective concentration against β-lactamase of Ps. aeruginosa 18S-H; assay type: biochemical; details: protection of chromogenic cephem indicator from hydrolysis within 40 min, average of duplicates
Source text: (§2) Determination of Minimum Protective Concentrations. The β-lactamase inhibitory properties of cephalosporin-phloroglucide esters VIII and IX as well as 7-(phloroglucidamido)cephalosporins X and XI were studied. Cephalosporins XV and XVI as well as clavulanic acid (XVII) were used in vitro as the reference compound. The average values of duplicate determinations and the ability of compounds to inhibit the hydrolysis of 3-[E-(2,4-dinitro)styryl]-(6R,7R)-7-(2-thienylacetamido)-3-cephem-4-carboxylic acid by β-lactamases from S. aureus 95 and Ps. aeruginosa 18S-H. Minimum protective concentrations (MPC) values were determined by the procedure of O'Callaghan ct al. [O'Callaghan C. H. ct al. Antimicrob. Agents Chemother. 1972, 1, 283] and are the lowest concentrations of β-lactams needed to protect the indicator from hydrolysis by β-lactamases under standard test conditions within 40 min. The hydrolysis of indicator was evidenced by the appearance of a distinct red color.

[3] = molecular target: T1, β-lactamase of S. aureus 95 (Staphylococcus aureus, UniProt P00807); test: Minimum protective concentration against β-lactamase of S. aureus 95; assay type: biochemical; details: protection of chromogenic cephem indicator from hydrolysis within 40 min, average of duplicates
T1 construct: chromogenic cephalosporin (nitrocefin type) hydrolysis
T1 sequence (P00807 25-281): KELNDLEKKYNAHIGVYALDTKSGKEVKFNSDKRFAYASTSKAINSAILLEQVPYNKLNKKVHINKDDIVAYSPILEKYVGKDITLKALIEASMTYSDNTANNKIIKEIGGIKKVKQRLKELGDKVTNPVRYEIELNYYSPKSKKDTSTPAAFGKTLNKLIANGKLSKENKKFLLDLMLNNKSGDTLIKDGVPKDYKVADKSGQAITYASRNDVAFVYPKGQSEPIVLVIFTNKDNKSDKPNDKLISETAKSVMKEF
Source text: as §2

[4] = system: β-lactamases of S. aureus 95 and Ps. aeruginosa 18S-H; test: Behaviour towards β-lactamases (statements in words); assay type: biochemical
Source text: as §2

[5] = agar dilution, average of duplicate determinations
[6] = Staphylococcus aureus, 95, agar dilution, average of duplicates, β-lactamase-producing, methicillin resistant organism, read-out: Minimum Inhibitory Concentration (MIC), S. aureus 95
[7] = Pseudomonas aeruginosa, 110175, agar dilution, average of duplicate determinations, read-out: Minimum Inhibitory Concentration (MIC), Ps. aerureus 1101-75

O=C(O)c1cccc(Cc2cc(Cl)cc(Cc3ccccc3O)c2O)c1O [II, 2-(3-Carboxy-2-hydroxybenzyl)-6-(2-hydroxybenzyl)-4-chlorophenol]
antibacterial activity in words [1]: more potent antimicrobial activity than that of the model phloroglucide (XXI)
MIC (PS. aerureus 18S-H): 0.1 mg/L (≈ 0.26 µM)
MIC (S. aureus FDA 209P): 0.86 mg/L (≈ 2.23 µM)
MIC (C. albicans; [5]): 1.43 mg/L (≈ 3.72 µM)
MIC (S. aureus 95; [6]): 0.43 mg/L (≈ 1.12 µM)
MIC (Ps. aerureus 1101-75; [7]): 0.02 mg/L (≈ 0.052 µM)

O=C(O)c1cccc(C(=O)c2cc(Cl)cc(C(=O)c3ccccc3O)c2O)c1O [III, 2-(3-Carboxy-2-hydroxybenzoyl)-6-(2-hydroxybenzoyl)-4-chlorophenol]
antibacterial activity in words [1]: its antimicrobial property decreased; also recorded: In comparison with dicarboxylic acid derivative (XV), mono-carboxylic acid (III) however exhibited greater potency; also recorded: lower efficacy than phenolic acid (II) and phenol (XII) against pathogenic microorganisms
MIC (PS. aerureus 18S-H): 0.26 mg/L (≈ 0.63 µM)
MIC (S. aureus FDA 209P): 3.67 mg/L (≈ 8.89 µM)
MIC (C. albicans; [5]): 3.7 mg/L (≈ 8.96 µM)
MIC (S. aureus 95; [6]): 0.98 mg/L (≈ 2.37 µM)
MIC (Ps. aerureus 1101-75; [7]): 0.17 mg/L (≈ 0.412 µM)

COC(=O)c1cccc(Cc2cc(Cl)cc(Cc3ccccc3O)c2O)c1O [IV]
antibacterial activity in words [1]: lower efficacy than phloroglucides (II) and (III) as well as the bifunctional cephalosporins (VIII) and (IX)
MIC (PS. aerureus 18S-H): 1.56 mg/L (≈ 3.91 µM)
MIC (S. aureus FDA 209P): 2.98 mg/L (≈ 7.47 µM)
MIC (C. albicans; [5]): 117 mg/L (≈ 294 µM)
MIC (S. aureus 95; [6]): 4.65 mg/L (≈ 11.7 µM)
MIC (Ps. aerureus 1101-75; [7]): 1.25 mg/L (≈ 3.13 µM)

O=C(COc1ccccc1)N[C@@H]1C(=O)N2C(C(=O)O)=C(COC(=O)c3cccc(C(=O)c4cc(Cl)cc(C(=O)c5ccccc5O)c4O)c3O)CS[C@H]12 [IX, 3-{3-[5-Chloro-2-hydroxy-3-(2-hydroxybenzoyl)benzoyl]-2-hydroxy-benzoyloxymethyl}-7-phenoxyacetamido-3-cephem-4-carboxylic Acid]
MIC (PS. aerureus 18S-H): 3.13 mg/L (≈ 4.12 µM)
Minimum Protective Concentration (MPC), β-lactamase of PS. aeruginosa 18S-H [2]: 5.98 µg/mL
Minimum Protective Concentration (MPC), β-lactamase of S. aureus 95 [3]: 4.81 µg/mL
MIC (S. aureus FDA 209P): 0.9 mg/L (≈ 1.19 µM)
antibacterial activity in words, S. aureus FDA 209P (S. aureus FDA 209P): greater antibacterial activity than the corresponding phloroglucides (II) and (III) against S. aureus FDA 209P
MIC (C. albicans; [5]): 6.47 mg/L (≈ 8.52 µM)
MIC (S. aureus 95; [6]): 2.1 mg/L (≈ 2.77 µM)
MIC (Ps. aerureus 1101-75; [7]): 1.37 mg/L (≈ 1.8 µM)
hydrolysis by / stability towards β-lactamases, in words [4]: underwent hydrolysis to liberate their phloroglucidc components

O=C(COc1ccccc1)N[C@@H]1C(=O)N2C(C(=O)O)=C(COC(=O)c3cccc(Cc4cc(Cl)cc(Cc5ccccc5O)c4O)c3O)CS[C@H]12 [VIII, 3-{3-[5-Chloro-2-hydroxy-3-(2-hydroxybenzyl)benzyl]-2-hydroxy-benzoyloxymethyl}-7-phenoxyacetamido-3-cephem-4-carboxylic Acid]
antibacterial activity in words [1]: broadened spectrum of antibacterial activity in vitro; also recorded: less activity against other pathogenic microorganisms; also recorded: phloroglucide-like antibacterial activity
MIC (PS. aerureus 18S-H): 1.24 mg/L (≈ 1.7 µM)
Minimum Protective Concentration (MPC), β-lactamase of PS. aeruginosa 18S-H [2]: 6.74 µg/mL
Minimum Protective Concentration (MPC), β-lactamase of S. aureus 95 [3]: 7.08 µg/mL
MIC (S. aureus FDA 209P): 0.41 mg/L (≈ 0.561 µM)
antibacterial activity in words, S. aureus FDA 209P (S. aureus FDA 209P): greater antibacterial activity than the corresponding phloroglucides (II) and (III) against S. aureus FDA 209P
MIC (C. albicans; [5]): 5.86 mg/L (≈ 8.01 µM)
MIC (S. aureus 95; [6]): 1.2 mg/L (≈ 1.64 µM)
MIC (Ps. aerureus 1101-75; [7]): 0.98 mg/L (≈ 1.34 µM)
hydrolysis by / stability towards β-lactamases, in words [4]: underwent hydrolysis to liberate their phloroglucidc components

CNC(=O)c1cccc(C(=O)c2cc(Cl)cc(C(=O)c3ccccc3O)c2O)c1O [VII]
antibacterial activity in words [1]: lower efficacy than phloroglucides (II) and (III) as well as the bifunctional cephalosporins (VIII) and (IX)
MIC (PS. aerureus 18S-H): 8.32 mg/L (≈ 19.5 µM)
MIC (S. aureus FDA 209P): 18.1 mg/L (≈ 42.6 µM)
MIC (C. albicans; [5]): 120 mg/L (≈ 281 µM)
MIC (S. aureus 95; [6]): 17.8 mg/L (≈ 41.7 µM)
MIC (Ps. aerureus 1101-75; [7]): 6.03 mg/L (≈ 14.2 µM)

CNC(=O)c1cccc(Cc2cc(Cl)cc(Cc3ccccc3O)c2O)c1O [VI]
antibacterial activity in words [1]: lower efficacy than phloroglucides (II) and (III) as well as the bifunctional cephalosporins (VIII) and (IX)
MIC (PS. aerureus 18S-H): 4.7 mg/L (≈ 11.8 µM)
MIC (S. aureus FDA 209P): 7.35 mg/L (≈ 18.5 µM)
MIC (C. albicans; [5]): 114 mg/L (≈ 287 µM)
MIC (S. aureus 95; [6]): 6.63 mg/L (≈ 16.7 µM)
MIC (Ps. aerureus 1101-75; [7]): 3.28 mg/L (≈ 8.24 µM)

COC(=O)c1cccc(C(=O)c2cc(Cl)cc(C(=O)c3ccccc3O)c2O)c1O [V]
antibacterial activity in words [1]: lower efficacy than phloroglucides (II) and (III) as well as the bifunctional cephalosporins (VIII) and (IX)
MIC (PS. aerureus 18S-H): 4.3 mg/L (≈ 10.1 µM)
MIC (S. aureus FDA 209P): 14.7 mg/L (≈ 34.4 µM)
MIC (C. albicans; [5]): 125 mg/L (≈ 294 µM)
MIC (S. aureus 95; [6]): 15.3 mg/L (≈ 35.9 µM)
MIC (Ps. aerureus 1101-75; [7]): 5.78 mg/L (≈ 13.5 µM)

Oc1ccccc1Cc1cc(Cl)cc(Cc2ccccc2O)c1O [XII, reference compound]
MIC (PS. aerureus 18S-H): 0.18 mg/L (≈ 0.528 µM)
MIC (S. aureus FDA 209P): 1.2 mg/L (≈ 3.52 µM)
MIC (C. albicans; [5]): 2.06 mg/L (≈ 6.04 µM)
MIC (S. aureus 95; [6]): 0.58 mg/L (≈ 1.7 µM)
MIC (Ps. aerureus 1101-75; [7]): 0.07 mg/L (≈ 0.205 µM)

O=C(O)c1cccc(Cc2cc(Cl)cc(Cc3cccc(C(=O)O)c3O)c2O)c1O [XIII, reference compound]
MIC (PS. aerureus 18S-H): 1.32 mg/L (≈ 3.08 µM)
MIC (S. aureus FDA 209P): 3.25 mg/L (≈ 7.58 µM)
MIC (C. albicans; [5]): 16.5 mg/L (≈ 38.5 µM)
MIC (S. aureus 95; [6]): 4.15 mg/L (≈ 9.68 µM)
MIC (Ps. aerureus 1101-75; [7]): 0.86 mg/L (≈ 2.01 µM)

O=C(O)c1cccc(C(=O)c2cc(Cl)cc(C(=O)c3cccc(C(=O)O)c3O)c2O)c1O [XIV, reference compound]
MIC (PS. aerureus 18S-H): 3.06 mg/L (≈ 6.7 µM)
MIC (S. aureus FDA 209P): 18.2 mg/L (≈ 40 µM)
MIC (C. albicans; [5]): 19.1 mg/L (≈ 41.9 µM)
MIC (S. aureus 95; [6]): 22.2 mg/L (≈ 48.6 µM)
MIC (Ps. aerureus 1101-75; [7]): 2.54 mg/L (≈ 5.56 µM)

CC(=O)OCC1=C(C(=O)O)N2C(=O)[C@@H](NC(=O)COc3ccccc3)[C@H]2SC1 [XV, reference compound]
MIC (PS. aerureus 18S-H): > 145 mg/L
Minimum Protective Concentration (MPC), β-lactamase of PS. aeruginosa 18S-H [2]: 0.97 µg/mL
Minimum Protective Concentration (MPC), β-lactamase of S. aureus 95 [3]: 1.35 µg/mL
MIC (S. aureus FDA 209P): 0.7 mg/L (≈ 1.72 µM)
MIC (C. albicans): > 145 mg/L
MIC (S. aureus 95; Staphylococcus aureus, 95, read-out: Minimum Inhibitory Concentration (MIC), S. aureus 95): > 145 mg/L
activity against β-lactamase producing microorganisms, in words (S. aureus 95): did not show significant activity
MIC (Ps. aerureus 1101-75; Pseudomonas aeruginosa, 110175, read-out: Minimum Inhibitory Concentration (MIC), Ps. aerureus 1101-75): > 145 mg/L
hydrolysis by / stability towards β-lactamases, in words [4]: susceptible to hydrolysis by β-lactamases

CO/N=C(\C(=O)N[C@@H]1C(=O)N2C(C(=O)O)=C(COC(C)=O)CS[C@H]12)c1csc(N)n1 [XVI, reference compound]
MIC (PS. aerureus 18S-H): 135 mg/L (≈ 296 µM)
Minimum Protective Concentration (MPC), β-lactamase of PS. aeruginosa 18S-H [2]: 1.03 µg/mL
Minimum Protective Concentration (MPC), β-lactamase of S. aureus 95 [3]: 2.72 µg/mL
MIC (S. aureus FDA 209P): 1.7 mg/L (≈ 3.73 µM)
MIC (C. albicans; [5]): > 145 mg/L
MIC (S. aureus 95; [6]): 40.6 mg/L (≈ 89.1 µM)
activity against β-lactamase producing microorganisms, in words (S. aureus 95): did not show significant activity
MIC (Ps. aerureus 1101-75; [7]): 69.9 mg/L (≈ 153 µM)
hydrolysis by / stability towards β-lactamases, in words [4]: susceptible to hydrolysis by β-lactamases
